Test [1] concerns the target X-box-binding protein 1 (Homo sapiens, UniProt P17861). The format is functional, Cricetulus griseus.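 Also: confirmatory dose-response counter-screen serving a CHOP assay.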
Test [2] deals with Acyl-homoserine lactone acylase PvdQ (Pseudomonas aeruginosa (strain LESB58), UniProt Q9I194). As to the kind of experiment: PvdQ acylase enzyme activity blockers – biochemical, fluorescence, plate reader and imaging, cherry-picks, dose response (AID 493231).
The nature of test [3]: A Cell Based Secondary Assay To Explore Cytotoxicity of Compounds that Sensitize Mycobacterium Tuberculosis to Beta-Lactam Antibiotics. It is filed as functional.
The target in test [4] is T1, Estrogen receptor (Homo sapiens, UniProt P03372).
T1 sequence (P03372 whole entry): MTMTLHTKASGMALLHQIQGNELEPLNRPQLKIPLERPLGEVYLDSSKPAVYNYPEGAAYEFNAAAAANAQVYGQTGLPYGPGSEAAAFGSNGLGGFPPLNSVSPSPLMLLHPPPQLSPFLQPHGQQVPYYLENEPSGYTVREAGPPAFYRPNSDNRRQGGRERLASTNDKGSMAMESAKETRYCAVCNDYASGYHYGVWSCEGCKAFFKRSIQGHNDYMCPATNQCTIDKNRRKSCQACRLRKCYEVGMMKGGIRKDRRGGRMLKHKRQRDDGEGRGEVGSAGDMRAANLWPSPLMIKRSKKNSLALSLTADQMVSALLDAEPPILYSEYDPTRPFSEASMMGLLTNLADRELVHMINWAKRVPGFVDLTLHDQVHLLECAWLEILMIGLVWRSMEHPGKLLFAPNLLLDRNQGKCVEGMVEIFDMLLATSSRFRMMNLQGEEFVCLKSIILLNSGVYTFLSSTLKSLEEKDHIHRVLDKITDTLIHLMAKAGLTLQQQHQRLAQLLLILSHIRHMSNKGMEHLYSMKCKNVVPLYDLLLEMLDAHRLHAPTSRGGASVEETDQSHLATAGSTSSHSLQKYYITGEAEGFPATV
As to the kind of experiment: ERα coactivator recruitment enhancers – biochemical, TR-FRET, ERα LBD, dose response (AID 737). In general terms: Time-resolved FRET reads energy transfer from a long-lived donor to a nearby acceptor.

The target in test [5] is T2, Nucleotide-binding oligomerization domain-containing protein 1 (Homo sapiens, UniProt Q9Y239).
T2 sequence (Q9Y239 whole entry): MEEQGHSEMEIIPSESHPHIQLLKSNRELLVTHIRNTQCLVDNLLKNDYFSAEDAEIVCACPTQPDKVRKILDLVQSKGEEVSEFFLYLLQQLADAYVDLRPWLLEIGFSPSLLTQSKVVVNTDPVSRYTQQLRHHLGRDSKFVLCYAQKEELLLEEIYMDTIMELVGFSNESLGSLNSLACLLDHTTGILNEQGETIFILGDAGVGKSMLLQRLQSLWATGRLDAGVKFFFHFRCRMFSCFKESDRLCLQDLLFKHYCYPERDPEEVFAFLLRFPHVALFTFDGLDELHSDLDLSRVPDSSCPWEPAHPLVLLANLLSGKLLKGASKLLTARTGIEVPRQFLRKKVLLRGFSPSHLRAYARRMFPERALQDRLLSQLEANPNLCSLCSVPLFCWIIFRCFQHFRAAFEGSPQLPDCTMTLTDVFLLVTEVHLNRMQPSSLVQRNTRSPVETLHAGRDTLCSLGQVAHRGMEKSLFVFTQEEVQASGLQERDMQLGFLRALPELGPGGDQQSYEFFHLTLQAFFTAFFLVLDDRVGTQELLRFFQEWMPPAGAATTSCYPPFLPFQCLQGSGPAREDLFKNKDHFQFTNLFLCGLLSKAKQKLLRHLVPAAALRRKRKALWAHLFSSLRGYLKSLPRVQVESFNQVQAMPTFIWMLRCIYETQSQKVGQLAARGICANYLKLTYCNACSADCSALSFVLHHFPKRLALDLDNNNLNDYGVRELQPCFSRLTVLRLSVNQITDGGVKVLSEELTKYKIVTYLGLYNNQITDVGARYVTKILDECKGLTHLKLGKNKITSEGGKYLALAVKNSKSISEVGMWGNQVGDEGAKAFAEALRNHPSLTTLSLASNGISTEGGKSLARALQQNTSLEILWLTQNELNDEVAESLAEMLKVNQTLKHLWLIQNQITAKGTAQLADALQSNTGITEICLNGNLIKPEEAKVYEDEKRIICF
As to the kind of experiment: blockers of NOD1 pathway activity – revised, SAR follow-up (AID 2333). It is filed as functional.

For test [6], the system named is HEK293. As to the kind of experiment: cells. The conditions noted are these: Homo sapiens.
For test [7], the target named is Nucleotide-binding oligomerization domain-containing protein 2 (Homo sapiens, UniProt Q9HC29). As to the kind of experiment: PubChem AID 2334. The format is functional.
In test [8] the target is Tumor necrosis factor (Homo sapiens, UniProt P01375). As to the kind of experiment: analog potency on TNFa NF-kB signaling – cell-based, revised, SAR follow-up (AID 2337). The format is functional.
The target in test [9] is T1, Estrogen receptor.
For test [10], the target named is Scavenger receptor class B member 1 (Mus musculus, UniProt Q61009). Kind of test: mouse SR-BI DiI-HDL uptake blockers – ldlA[mSR-BI] cells, fluorescence, cherry pick, dose response (AID 493194).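 Also: cellular uptake of fluorescent DiI-labeled HDL measured as cell fluorescence.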 It is filed as functional, cell-based.
The target in test [11] is T3, Heat shock factor protein 1 (Mus musculus, UniProt P38532).
T3 sequence (P38532 whole entry): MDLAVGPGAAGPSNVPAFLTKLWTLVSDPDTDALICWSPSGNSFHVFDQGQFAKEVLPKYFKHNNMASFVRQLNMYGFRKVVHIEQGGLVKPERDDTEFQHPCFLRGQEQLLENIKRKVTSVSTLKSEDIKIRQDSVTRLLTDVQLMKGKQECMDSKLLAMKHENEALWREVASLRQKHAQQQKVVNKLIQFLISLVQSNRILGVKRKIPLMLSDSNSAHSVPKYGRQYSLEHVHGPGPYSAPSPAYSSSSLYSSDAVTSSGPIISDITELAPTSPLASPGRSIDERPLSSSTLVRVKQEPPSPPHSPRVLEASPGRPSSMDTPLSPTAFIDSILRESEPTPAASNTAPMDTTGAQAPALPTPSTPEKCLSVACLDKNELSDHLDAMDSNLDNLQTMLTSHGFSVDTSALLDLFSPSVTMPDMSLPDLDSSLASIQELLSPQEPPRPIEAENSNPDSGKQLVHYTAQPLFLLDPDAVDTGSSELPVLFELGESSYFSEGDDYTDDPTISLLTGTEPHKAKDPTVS
As to the kind of experiment: decrease of HSF1-responsive luciferase luminescence – cell-based, NIH3T3, dose retest, confirmation (AID 2382).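 Also: NIH3T3 fibroblasts with HSF1-driven luciferase reporter stressed by proteasome inhibitor MG132; luminescence from HSF1-driven luciferase expression after 8 hours of MG132 stress.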 It is filed as functional.

Test [12] addresses Luciferin 4-monooxygenase (Photinus pyralis, UniProt P08659). As to the kind of experiment: In vitro luciferase assay using purified luciferase. [Related pubchem assays: 1299, 1270, 1295, 1375, 1287, 1281, 1293, 1291, 1289, 1280, 465, 1364, 1282, 1372, 1365, 1370, 1367, 1366, 1266, 1373, 1292, 1290, 1302, 1371, 1283, 1271, 1294, 1374, 1368, 1369 ].
Test [13] deals with T4, Microphthalmia-associated transcription factor (Homo sapiens, UniProt O75030).
T4 sequence (O75030 whole entry): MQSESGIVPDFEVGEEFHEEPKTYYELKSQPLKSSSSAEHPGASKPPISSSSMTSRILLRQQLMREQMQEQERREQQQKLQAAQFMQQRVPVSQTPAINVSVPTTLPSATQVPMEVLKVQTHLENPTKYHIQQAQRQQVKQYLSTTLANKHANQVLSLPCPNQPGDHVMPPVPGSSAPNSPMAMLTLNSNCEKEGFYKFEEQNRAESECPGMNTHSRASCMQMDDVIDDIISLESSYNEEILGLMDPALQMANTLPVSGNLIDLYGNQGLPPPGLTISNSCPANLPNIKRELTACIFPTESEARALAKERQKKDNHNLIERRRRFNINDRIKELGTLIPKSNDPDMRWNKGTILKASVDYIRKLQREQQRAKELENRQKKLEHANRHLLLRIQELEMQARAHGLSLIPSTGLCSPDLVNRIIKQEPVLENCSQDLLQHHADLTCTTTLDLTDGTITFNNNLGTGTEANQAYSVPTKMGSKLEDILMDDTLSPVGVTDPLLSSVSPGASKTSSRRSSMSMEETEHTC
Kind of test: reducers of TRPM1 reporter luminescence, concentration series – cell-based, SK-MEL-5, cherry-picked, set 3, MITF inhibitor project, dose response (AID 493073).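 Also: SK-MEL-5 melanoma cells with luciferase driven by the MITF target TRPM1 promoter.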 It is filed as functional.

The subject of test [14] is HEK293. As to the kind of experiment: PMA/Ionomycin induced NF-kB luciferase assay in 293- NF-kB-Luc stable cells. [Related pubchem assays: 1299, 1270, 1295, 1375, 1287, 1281, 1293, 1291, 1289, 1280, 465, 1364, 1282, 1372, 1365, 1370, 1367, 1366, 1269, 1373, 1292, 1290, 1302, 1371, 1283, 1271, 1294, 1374, 1368, 1369 ]. It is filed as functional, cell-based. The conditions noted are these: Homo sapiens.

The nature of test [15]: luciferase reporter signal suppression in cells – H4 neuroglioma cells, luminescence, dose response (AID 1990). The format is functional, cell-based. (Reporter assays use an easily measured gene product as a stand-in for the process of interest.)
Test [16] in a line: Luminescence-based counterscreen assay for KLF5 inhibitors: dose response cell-based high throughput screening assay to identify cytotoxic compounds using the IEC-6 intestinal epithelial cell line. [Related pubchem assays: 1700 (Primary screen.), 1834 (Confirmation screen.), 1858 (Summary AID.), 1905 (Counterscreen.)]. It is filed as functional.
Test [17] is described as follows: Luminescence Cell-Based Dose Response HTS to Identify Inhibitors of 5'UTR Stem-Loop Driven Prion Protein mRNA Translation in H4 Neuroglioblastoma Cells. [Related pubchem assays: 1827 (Project Summary), 1813 (Primary HTS)]. The format is functional.
Test [18] deals with HEK293. As to the kind of experiment: Cytotoxicity assay in HEK293 cells. [Related pubchem assays (depositor defined):AID1266, AID1269, AID1270, AID1271, AID1280, AID1281, AID1282, AID1283, AID1287, AID1289, AID1290, AID1291, AID1292, AID1293, AID1294, AID1295, AID1299, AID1302, AID1364, AID1365, AID1366, AID1367, AID1369, AID1370, AID1371, AID1372, AID1373, AID1374, AID1375, AID1384 …. The conditions noted are these: Homo sapiens. The format is functional, cell-based.

The nature of test [19]: HEK-293T viability loss after treatment – luminescence, T-cell screen hits, cytotoxicity control for TCR NF-kB inhibitor project, dose response (AID 489026).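 Also: cells exposed to compound about 14 hours before the viability readout.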 It is filed as functional, cell-based.
For test [20], the target named is Voltage-gated N-type calcium channel alpha-1B subunit/Amyloid beta A4 precursor protein-binding family A member 1 (Homo sapiens, UniProt Q00975+Q02410). As to the kind of experiment: disruptors of Mint-PDZ/N-type channel peptide interaction – biochemical, HTRF, set 2, SAR follow-up (AID 434980). The format is functional.
Test [21] concerns the target Neutrophil collagenase (Homo sapiens, UniProt P22894). Kind of test: potency against MMP13, MMP2, MMP3, MMP14 – biochemical, probe development, late stage results, selectivity assay for MMP13 inhibitor project, late-stage follow-up, panel member MMP-8 [IC50 Assay] (AID 2067).
Test [22] addresses Collagenase 3 (Homo sapiens, UniProt P45452). Kind of test: potency against MMP13, MMP2, MMP3, MMP14 – biochemical, probe development, late stage results, selectivity assay for MMP13 inhibitor project, late-stage follow-up, panel member MMP-13 [IC50 Assay] (AID 2067).

From ChEMBL document CHEMBL1201862, “PubChem BioAssay data set” (2004) come the findings set out here.

The source made the active and inactive calls.

Scavenger receptor class B member 1, sequence (Q61009 whole entry): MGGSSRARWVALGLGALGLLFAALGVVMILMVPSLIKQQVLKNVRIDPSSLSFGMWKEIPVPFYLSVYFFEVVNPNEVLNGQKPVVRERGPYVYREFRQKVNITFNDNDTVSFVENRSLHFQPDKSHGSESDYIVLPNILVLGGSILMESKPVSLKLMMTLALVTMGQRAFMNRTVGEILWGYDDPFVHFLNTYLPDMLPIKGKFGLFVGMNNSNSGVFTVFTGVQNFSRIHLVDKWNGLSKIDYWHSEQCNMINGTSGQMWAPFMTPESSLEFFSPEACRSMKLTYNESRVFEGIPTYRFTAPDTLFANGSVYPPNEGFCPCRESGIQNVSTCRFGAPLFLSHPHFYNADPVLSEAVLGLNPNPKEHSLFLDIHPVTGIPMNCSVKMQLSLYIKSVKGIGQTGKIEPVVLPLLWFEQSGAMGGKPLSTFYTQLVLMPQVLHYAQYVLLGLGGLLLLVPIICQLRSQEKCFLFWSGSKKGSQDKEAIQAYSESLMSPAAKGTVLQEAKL
X-box-binding protein 1, sequence (P17861 whole entry): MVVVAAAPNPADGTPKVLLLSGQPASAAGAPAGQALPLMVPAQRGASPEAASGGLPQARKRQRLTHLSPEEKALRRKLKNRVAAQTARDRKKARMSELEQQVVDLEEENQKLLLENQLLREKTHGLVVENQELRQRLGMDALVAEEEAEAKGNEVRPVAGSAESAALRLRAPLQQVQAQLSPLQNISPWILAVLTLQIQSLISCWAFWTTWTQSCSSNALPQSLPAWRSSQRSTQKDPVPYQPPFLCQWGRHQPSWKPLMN
Neutrophil collagenase, sequence (P22894 whole entry): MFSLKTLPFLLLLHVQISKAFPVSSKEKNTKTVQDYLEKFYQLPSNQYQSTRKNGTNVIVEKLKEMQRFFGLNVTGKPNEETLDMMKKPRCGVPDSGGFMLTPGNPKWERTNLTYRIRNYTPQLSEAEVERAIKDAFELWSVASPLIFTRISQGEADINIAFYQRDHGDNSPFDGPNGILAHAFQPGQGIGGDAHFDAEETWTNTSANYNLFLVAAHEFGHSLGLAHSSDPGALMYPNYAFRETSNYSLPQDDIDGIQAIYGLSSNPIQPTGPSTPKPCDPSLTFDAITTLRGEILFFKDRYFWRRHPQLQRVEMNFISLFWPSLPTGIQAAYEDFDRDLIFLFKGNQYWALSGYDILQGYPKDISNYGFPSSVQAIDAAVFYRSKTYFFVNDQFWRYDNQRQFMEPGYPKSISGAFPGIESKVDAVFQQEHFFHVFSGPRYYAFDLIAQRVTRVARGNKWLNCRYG
Acyl-homoserine lactone acylase PvdQ, sequence (Q9I194 24-193 limits assumed): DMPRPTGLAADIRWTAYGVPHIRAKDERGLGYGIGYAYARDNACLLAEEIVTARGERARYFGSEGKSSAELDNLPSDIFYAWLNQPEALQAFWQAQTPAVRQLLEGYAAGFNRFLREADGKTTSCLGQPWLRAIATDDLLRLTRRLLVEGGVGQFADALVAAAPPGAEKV
Acyl-homoserine lactone acylase PvdQ, sequence (Q9I194 217-762 limits assumed): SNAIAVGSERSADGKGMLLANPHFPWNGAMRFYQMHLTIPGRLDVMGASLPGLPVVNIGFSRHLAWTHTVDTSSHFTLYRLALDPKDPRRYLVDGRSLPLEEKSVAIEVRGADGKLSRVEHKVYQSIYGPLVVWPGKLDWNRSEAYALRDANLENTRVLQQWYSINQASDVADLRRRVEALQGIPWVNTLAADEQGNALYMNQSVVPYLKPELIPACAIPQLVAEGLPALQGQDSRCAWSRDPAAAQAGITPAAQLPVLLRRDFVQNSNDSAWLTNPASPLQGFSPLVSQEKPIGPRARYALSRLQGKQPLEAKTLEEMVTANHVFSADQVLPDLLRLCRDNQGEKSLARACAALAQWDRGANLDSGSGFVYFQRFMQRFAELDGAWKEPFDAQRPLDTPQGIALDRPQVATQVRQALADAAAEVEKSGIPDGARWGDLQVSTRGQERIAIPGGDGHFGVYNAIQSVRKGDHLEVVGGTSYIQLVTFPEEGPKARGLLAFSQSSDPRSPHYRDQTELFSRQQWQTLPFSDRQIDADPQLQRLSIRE
Luciferin 4-monooxygenase, sequence (P08659 whole entry): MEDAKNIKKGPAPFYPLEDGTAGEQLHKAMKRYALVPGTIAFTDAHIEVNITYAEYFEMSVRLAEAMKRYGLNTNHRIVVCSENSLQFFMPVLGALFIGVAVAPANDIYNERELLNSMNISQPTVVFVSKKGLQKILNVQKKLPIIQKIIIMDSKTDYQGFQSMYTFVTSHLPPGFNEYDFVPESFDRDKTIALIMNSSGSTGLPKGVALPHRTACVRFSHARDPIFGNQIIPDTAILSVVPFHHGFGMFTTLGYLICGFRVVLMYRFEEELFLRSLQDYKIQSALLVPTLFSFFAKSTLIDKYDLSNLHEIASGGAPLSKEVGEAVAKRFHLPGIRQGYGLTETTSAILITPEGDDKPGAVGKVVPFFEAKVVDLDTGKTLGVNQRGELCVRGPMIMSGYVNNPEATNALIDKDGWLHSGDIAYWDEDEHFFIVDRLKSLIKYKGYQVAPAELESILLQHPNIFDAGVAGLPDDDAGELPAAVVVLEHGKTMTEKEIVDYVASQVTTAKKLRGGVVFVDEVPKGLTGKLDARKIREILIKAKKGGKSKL
Tumor necrosis factor, sequence (P01375 whole entry): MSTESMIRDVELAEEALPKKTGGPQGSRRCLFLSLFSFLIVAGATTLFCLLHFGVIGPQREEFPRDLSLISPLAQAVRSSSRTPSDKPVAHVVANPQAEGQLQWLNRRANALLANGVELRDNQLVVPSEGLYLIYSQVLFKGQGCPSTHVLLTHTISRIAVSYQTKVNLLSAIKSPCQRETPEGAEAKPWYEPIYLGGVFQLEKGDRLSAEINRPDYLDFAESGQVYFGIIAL
Nucleotide-binding oligomerization domain-containing protein 2, sequence (Q9HC29 whole entry, the tested form may be a part): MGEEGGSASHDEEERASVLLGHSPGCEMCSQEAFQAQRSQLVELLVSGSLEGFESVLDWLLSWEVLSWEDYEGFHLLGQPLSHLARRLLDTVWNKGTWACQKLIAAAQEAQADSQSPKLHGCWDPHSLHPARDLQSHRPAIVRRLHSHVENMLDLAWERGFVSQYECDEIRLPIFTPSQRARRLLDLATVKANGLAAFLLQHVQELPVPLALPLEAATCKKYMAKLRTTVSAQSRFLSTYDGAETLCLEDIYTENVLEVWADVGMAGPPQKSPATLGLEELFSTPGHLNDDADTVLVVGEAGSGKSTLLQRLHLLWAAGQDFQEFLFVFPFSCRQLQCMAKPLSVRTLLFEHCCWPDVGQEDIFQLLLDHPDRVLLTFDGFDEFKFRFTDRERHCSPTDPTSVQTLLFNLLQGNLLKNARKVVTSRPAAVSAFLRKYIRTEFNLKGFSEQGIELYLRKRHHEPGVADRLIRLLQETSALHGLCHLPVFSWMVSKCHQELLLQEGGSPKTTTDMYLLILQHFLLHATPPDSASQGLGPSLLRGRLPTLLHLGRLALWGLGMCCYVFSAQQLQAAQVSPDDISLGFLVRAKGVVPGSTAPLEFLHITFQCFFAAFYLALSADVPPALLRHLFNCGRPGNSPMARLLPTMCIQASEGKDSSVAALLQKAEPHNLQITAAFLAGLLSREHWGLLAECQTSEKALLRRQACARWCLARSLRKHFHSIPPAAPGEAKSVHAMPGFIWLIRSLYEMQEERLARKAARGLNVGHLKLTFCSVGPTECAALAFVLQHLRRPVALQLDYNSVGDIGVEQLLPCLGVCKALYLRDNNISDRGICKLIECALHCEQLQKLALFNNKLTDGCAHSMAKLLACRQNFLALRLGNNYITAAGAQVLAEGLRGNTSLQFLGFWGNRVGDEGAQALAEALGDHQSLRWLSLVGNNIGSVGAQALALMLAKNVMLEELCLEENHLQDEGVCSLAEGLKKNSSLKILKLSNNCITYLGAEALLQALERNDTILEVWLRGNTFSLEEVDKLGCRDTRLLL

With `CCC(C)(C)NC(=O)C(c1cccn1C)N(C(=O)Cn1nnc2ccccc21)c1ccc(F)cc1` (configuration not stated), the “Absolute IC50 (XBP1)” value in test [1] is 10 µM.
Take `Cc1ccc([S+]([O-])c2ccc(C)cc2)cc1`: the AC50 (as a rule, the midpoint of the concentration-response curve, whichever way the signal moves) in test [2] is 2.65 µM (active).
Take `Cc1ccc(Cn2c(NC(=O)c3ccco3)nc3ccccc32)cc1`: the CC50 (commonly the concentration giving 50% cytotoxicity) in test [3] is 10.1 µM (active). Also, the EC50 (commonly the concentration at which the effect is half-maximal) in test [4] is 14.6 µM (active). Besides, the IC50 in [5], in [6], in [7] and in [8] was > 20 µM (inactive) in each case.
For the molecule `CCOC(=O)c1c(Nc2nc(C)c(C(=O)NC)s2)sc(C)c1C`, in [9], the IC50 – broadly, the concentration that gives 50% inhibition – is on record as 42.3 µM (not active). For the same molecule, in [10], the AC50 was 11.6 µM (active).
`COC(=O)C1=C(CN2CCCc3ccccc32)NC(=O)NC1c1ccc(F)cc1` (configuration not stated): the EC50 in [11] is 8.88 µM (active); in test [12], > 8 µM (not active); in test [14] it was 9.82 µM (not active); in test [15], 6.69 µM (inconclusive); in test [17] it was 12.4 µM (active); in test [18] it was > 8 µM (inactive). Further, the AC50 in test [13] is 2.16 µM (active). For the same molecule, the IC50 was > 39.8 µM (not active) in test [16] and > 80 µM (inactive) in [19].
As to `CN(CCc1ccccc1)C(=O)c1cc(-c2ccco2)nc2ccccc12`, the IC50 in [20] is > 56.8 µM (inactive).
As to `O=C(O)c1ccc(CSc2nc3c(c(=O)[nH]2)CCC3)cc1`, the IC50 in [21] and in test [22] was > 39.8 µM (inactive) each time.
